The subject of series [1] is human hepatoma cell line (SMMC-7721). The experiment in a line: MTT cytotoxicity assay, SMMC-7721. Format: cell-based. As to conditions: SMMC-7721, 72 h, read-out: In Vitro Cytotoxicity (IC50, µM) SMMC7721. On the procedure:
(§1) The cytotoxicity of these compounds against three cancer cell lines was assayed using a conventional microtitre plate tetrazolium cytotoxicity assay. The human hepatoma cancer cell line (SMMC-7721), the colon cancer cell line (HCT-116), and the human breast cancer cell line (MCF-7) were provided by The Chinese Academy of Sciences cell bank. These cells were plated at a density of 1 × 10^5 cells/mL and incubated in a 96-well late for 24 h (37 °C, 5% CO2). The cells were then exposed to various concentrations of the compounds (0.0032, 0.016, 0.08, 0.4, 2, 10, and 50 µM/mL) continuously for 72 h. After this incubation, MTT solution (20 μL, 5 mg/mL) was added to each well and incubated for a further 4 h before removing the media. Formazan crystals were then dissolved by the addition of DMSO (100 μL per well). After mixing, the absorbance was read at 540 nm on a microplate reader. These assays were performed in three independent experiments. Wells containing no drugs, or CPT, were used as negative and positive controls, respectively. The IC50 values, defined as the concentration of compounds that produced a 50% decrease in surviving cells, were calculated using the Logit-method.
In general terms: Tetrazolium assays rely on reduction of a dye to a coloured formazan, in cell work by metabolically active cells.

Series [2] is described as follows: Body weight and surviving mice in the H22 in vivo study. As to conditions: for Mice Number End of Study: 4 mice at start. More on the design: species or system mouse. The procedure: Anti-tumour activity screens of CPT-bile acid analogues were conducted in KM mice with H22 mouse liver tumours. […] These groups (n = 4) were treated with either vehicle (control), CPT, or the CPT-bile acid analogues. Mice received i.p. treatments once every two days.

For series [3], the system named is human breast cancer cell line (MCF-7). The experiment in a line: MTT cytotoxicity assay, MCF-7. Format: cell-based. To be noted: MCF7, 72 h, read-out: In Vitro Cytotoxicity (IC50, µM) MCF-7. The procedure: as §1
In series [4] the test system is human colon cancer cell line (HCT-116). The experiment in a line: MTT cytotoxicity assay, HCT-116. Format: cell-based. To be noted: HCT-116, 72 h, read-out: In Vitro Cytotoxicity (IC50, µM) HCT-116. The procedure: as §1
The subject of a further series is H22 mouse liver tumours. The experiment in a line: In vivo anti-tumour activity, H22 mouse liver tumour model. To be noted: H22 KM mice, i.p. every two days. On the procedure: Anti-tumour activity screens of CPT-bile acid analogues were conducted in KM mice with H22 mouse liver tumours. Briefly, female mice weighing 18–22 g were subcutaneously inoculated at the right flank with a tumour cell suspension (1 × 10^6 cells) in 0.2 mL of phosphate-buffered saline. The mice were divided into subgroups 24 h after inoculation. These groups (n = 4) were treated with either vehicle (control), CPT, or the CPT-bile acid analogues. Mice received i.p. treatments once every two days. When the tumour weight of the control group reached 1.0–1.5 g, the mice were killed and the TIR (%) calculated.

Series [5] in a line: Lactone stability in rat blood serum (HPLC). It counts as in vitro ADME. To be noted: rat, serum. The procedure:
Compounds E2, F2, G2, and H2 were dissolved in DMSO (100 μL, 4 mM/L) and incubated in rat blood serum (4 mL) at 37 °C. Aliquots were taken at different time points (0, 2, 4, 6, 8, 10, 12, and 24 h) and examined by HPLC, using CPT as the reference.

From article PMC6271966, “Synthesis and Biological Activity of Some Bile Acid-Based Camptothecin Analogues” (Molecules, 2014) come the findings set out here.

The structures appear in SMILES notation.

Regarding `CC[C@@]1(OC(=O)COC(=O)CCC(C)C2CCC3C4C(CC[C@]23C)[C@@]2(C)CC[C@@H](O)CC2C[C@H]4O)C(=O)OCc2c1cc1n(c2=O)Cc2cc3ccccc3nc2-1` (stereo partly drawn) [Compound G4, Camptothecin-20 (S)-O-acetate-[N-(3′α,7′α-dihydroxy-24′-carbonyl-5′β-cholane)]], the melting point (as a rule, the temperature, or range, at which the solid turns liquid) fell in the range of 228 to 229 °C. Also, the IC50 (as a rule, the concentration that gives 50% inhibition) in series [1] worked out at 0.14 µM. The “Mice Number End of Study” value in series [2] (dose 19.21 × 3 µmol/kg i.p.) is on record as 4. The “Body Weight (g) End of Study” value in series [2] (dose 19.21 × 3 µmol/kg i.p., start of study 19.1 g) is 19.4 g. Further, in series [2] (dose 38.42 × 3 µmol/kg i.p.), the “Mice Number End of Study” value came to 4. In addition, the “Body Weight (g) End of Study” value in series [2] (dose 38.42 × 3 µmol/kg i.p., start of study 21.0 g) came to 21.6 g. In addition, the “Mice Number End of Study” value in series [2] (dose 57.63 × 3 µmol/kg i.p.) is on record as 4. The “Body Weight (g) End of Study” value in series [2] (dose 57.63 × 3 µmol/kg i.p., start of study 19.8 g) is reported as 22.1 g. The half-maximal inhibitory concentration (IC50) in series [3] came out at 70 µM. The half-maximal inhibitory concentration (IC50) in series [4] came to 36 µM. Besides, the “TIR (%)” value in the series with H22 mouse liver tumours (dose 19.21 × 3 µmol/kg) was 35.45%. In the series on H22 mouse liver tumours (dose 38.42 × 3 µmol/kg), the “TIR (%)” value came out at 64.55%. Further, the “TIR (%)” value in the series on H22 mouse liver tumours (dose 57.63 × 3 µmol/kg) amounted to 71.12%.
Take `CC[C@@]1(OC(=O)COC(=O)CCC(C)C2CCC3C4C(CC[C@]23C)[C@@]2(C)CC[C@@H](O)CC2C[C@@H]4O)C(=O)OCc2c1cc1n(c2=O)Cc2cc3ccccc3nc2-1` (stereo partly drawn) [Compound G3, Camptothecin-20 (S)-O-acetate-[N-(3′α,7′β-dihydroxy-24′-carbonyl-5′β-cholane)]]: the melting point fell in the range of 229 to 230 °C. For the same compound, the half-maximal inhibitory concentration (IC50) in series [1] was determined as 6.84 µM. The IC50 in series [3] was 62 µM. The IC50 in series [4] is 12.1 µM.
Taken in the same sequence, the figures for `CC[C@@]1(OC(=O)COC(=O)CCC(C)C2CCC3C4C(C[C@H](O)[C@]23C)[C@@]2(C)CC[C@@H](O)CC2C[C@H]4O)C(=O)OCc2c1cc1n(c2=O)Cc2cc3ccccc3nc2-1` (stereo partly drawn) [Compound G1, Camptothecin-20 (S)-O-acetate-[N-(3′α,7′α,12′α-trihydroxy-24′-carbonyl-5′β-cholane)]] were 230 to 233 °C, 0.71 µM, 10.9 µM and 4 µM.
Taken in the same sequence, the figures for `CC[C@@]1(OC(=O)C(CCC(=O)OC)NC(=O)CCC(C)C2CCC3C4C(CC[C@]23C)[C@@]2(C)CC[C@@H](O)CC2C[C@H]4O)C(=O)OCc2c1cc1n(c2=O)Cc2cc3ccccc3nc2-1` (stereo partly drawn) [Compound F4, Camptothecin-20 (S)-O-(D-Glu(OMe)) Ester-[N-(3′α 7′α-dihydroxy-24′-carbonyl-5′β-cholane)]] were 182 to 185 °C, 2.23 µM, 120 µM and 20 µM.
Turning to `CC[C@@]1(OC(=O)CNC(=O)CCC(C)C2CCC3C4C(CC[C@]23C)[C@@]2(C)CC[C@@H](O)CC2C[C@H]4O)C(=O)OCc2c1cc1n(c2=O)Cc2cc3ccccc3nc2-1` (stereo partly drawn) [Compound E4, Camptothecin-20 (S)-O-glycine Ester-[N-(3′α,7′α-dihydroxy-24′-carbonyl-5′β-cholane)]], the melting point lay in the range of 202 to 203 °C. For the same compound, in series [1], the IC50 worked out at 2.25 µM. The IC50 in series [3] is 20 µM. For the same compound, the IC50 in series [4] is 2.88 µM.
The compound `CC[C@@]1(OC(=O)C(CCC(=O)OC)NC(=O)CCC(C)C2CCC3C4CCC5C[C@H](O)CC[C@]5(C)C4C[C@H](O)[C@]23C)C(=O)OCc2c1cc1n(c2=O)Cc2cc3ccccc3nc2-1` (stereo partly drawn) [Compound F2, Camptothecin-20 (S)-O-(D-Glu(OMe))Ester-[N-(3′α,12′α-dihydroxy-24′-carbonyl-5′β-cholane)]] returned a melting point of 199 to 200 °C. In addition, the IC50 in series [1] amounted to 2.25 µM. Besides, in series [5], the half-life (as a rule, how long it takes for the measured level to halve) at 97.6 µM was more than 24 h. The half-maximal inhibitory concentration (IC50) in series [3] came out at 11.8 µM. Moreover, in series [4], the IC50 was determined as 36 µM.
Turning to `CC[C@@]1(O)C(=O)OCc2c1cc1n(c2=O)Cc2cc3cc(OCCCOC(=O)CCC(C)C4CCC5C6C(C[C@H](O)C45)C4CC[C@@H](O)CC4C[C@H]6O)ccc3nc2-1` (stereo partly drawn) [Compound H1, 10-O-(3-O-(3′α,7′α,12′α-Trihydroxy-24′-carbonyl-5′β-cholan)-propyl)-20(S)-camptothecin], the IC50 was 3.2 µM in series [1], 3 µM in series [3] and 7.4 µM in series [4].
Take `CC[C@@]1(OC(=O)C(CCC(=O)OC)NC(=O)CCC(C)C2CCC3C4C(C[C@H](O)[C@]23C)[C@@]2(C)CC[C@@H](O)CC2C[C@H]4O)C(=O)OCc2c1cc1n(c2=O)Cc2cc3ccccc3nc2-1` (stereo partly drawn) [Compound F1, Camptothecin-20 (S)-O-(D-Glu (OMe)) Ester-[N-(3′α,7′α,12′α-trihydroxy-24′-carbonyl-5′β-cholane)]]: the melting point was 195 to 196 °C. In addition, the IC50 in series [1] turned out to be 55.7 µM. In addition, the half-inhibitory concentration (IC50) in series [3] is 40 µM. Also, in series [4], the IC50 is 70 µM.
With `CC[C@@]1(OC(=O)CNC(=O)CCC(C)C2CCC3C4C(C[C@H](O)[C@]23C)[C@@]2(C)CC[C@@H](O)CC2C[C@H]4O)C(=O)OCc2c1cc1n(c2=O)Cc2cc3ccccc3nc2-1` (stereo partly drawn) [Compound E1, Camptothecin-20 (S)-O-glycine Ester-[N-(3′α,7′α,12′α-trihydroxy-24′-carbonyl-5′β-cholane)]], the melting point fell in the range of 200 to 203 °C. Besides, in series [1], the IC50 stood at 2.23 µM. For the same compound, the IC50 in series [3] stood at 18.3 µM. In addition, in series [4], the IC50 came to 2.9 µM.
For the compound `CC[C@@]1(O)C(=O)OCc2c1cc1n(c2=O)Cc2cc3cc(OCCCOC(=O)CCC(C)C4CCC5C4CCC4C6CC[C@@H](O)CC6C[C@H](O)C45)ccc3nc2-1` (stereo partly drawn) [Compound H3, 10-O-(3-O-(3′α,7′β-Dihydroxy-24′-carbonyl-5′β-cholan)-propyl)-20(S)-camptothecin], the results for the concentration for half-maximal inhibition (IC50) in series [1], in series [3] and in series [4] were 3.34 µM, 2.8 µM and 0.8 µM, respectively.
With `CC[C@@]1(OC(=O)C(CCC(=O)OC)NC(=O)CCC(C)C2CCC3C4C(CC[C@]23C)[C@@]2(C)CC[C@@H](O)CC2C[C@@H]4O)C(=O)OCc2c1cc1n(c2=O)Cc2cc3ccccc3nc2-1` (stereo partly drawn) [Compound F3, Camptothecin-20 (S)-O-(D-Glu(OMe)) Ester-[N-(3′α,7′β-dihydroxy-24′-carbonyl-5′β-cholane)]], the melting point lay within 187 to 189 °C. Also, in series [1], the IC50 is 12.2 µM. The half-inhibitory concentration (IC50) in series [3] came out at 46.3 µM. For the same compound, in series [4], the IC50 is 13 µM.
The compound `CC[C@@]1(OC(=O)COC(=O)CCC(C)C2CCC3C4CCC5C[C@H](O)CC[C@]5(C)C4C[C@H](O)[C@]23C)C(=O)OCc2c1cc1n(c2=O)Cc2cc3ccccc3nc2-1` (stereo partly drawn) [Compound G2, Camptothecin-20 (S)-O-acetate-[N-(3′α,12′α-dihydroxy-24′-carbonyl-5′β-cholane)]] registered a melting point of 221 to 224 °C. Besides, the half-maximal inhibitory concentration (IC50) in series [1] is 1.24 µM. This compound displayed a half-life at 97.6 µM in series [5] of more than 24 h. In addition, the IC50 in series [3] was found to be 4 µM. Further, the IC50 in series [4] was found to be 2.05 µM.
For `CC[C@@]1(OC(=O)CNC(=O)CCC(C)C2CCC3C4C(CC[C@]23C)[C@@]2(C)CC[C@@H](O)CC2C[C@@H]4O)C(=O)OCc2c1cc1n(c2=O)Cc2cc3ccccc3nc2-1` (stereo partly drawn) [Compound E3, Camptothecin-20 (S)-O-glycine Ester-[N-(3′α,7′β-dihydroxy-24′-carbonyl-5′β-cholane)]], the melting point is 209 to 211 °C. For the same compound, the IC50 in series [1] turned out to be 2.18 µM. Further, the IC50 in series [3] was 61 µM. In addition, the IC50 in series [4] came out at 2.4 µM.
For `CC[C@@]1(O)C(=O)OCc2c1cc1n(c2=O)Cc2cc3cc(OCCCOC(=O)CCC(C)C4CCC5C4CCC4C6CC[C@@H](O)CC6C[C@@H](O)C45)ccc3nc2-1` (stereo partly drawn) [Compound H4, 10-O-(3-O-(3′α,7′α-Dihydroxy-24′-carbonyl-5′β-cholan)-propyl)-20(S)-camptothecin], the half-maximal inhibitory concentration (IC50) in series [1] stood at 2.18 µM; in series [3], 30 µM; in series [4] it was 1.4 µM.
